From US20220370464A1, “COMPOSITIONS AND METHODS OF TREATING OR PREVENTING OCULAR INFECTIONS WITH FILOCICLOVIR” (Microbiotix, Inc., priority 2019, published 2022)
Like-named read-outs stand apart in the source and are kept apart here.

Tests used:
Adenovirus 5 (AdV5) = assay: Cytopathic effects (CPE) reduction assay, AdV5 in HFF cells, 384-well; format: cell-based, human adenovirus 5 (AdV5); conditions: for selectivity ratio: human, adenovirus 5, HFF cells, read-out: SI (selective index, CC50/EC50)
Method: Antiviral and cytotoxicity data were obtained in a series of three to five separate experiments for each virus to provide an accurate estimate of antiviral activity and statistical data. Each assay included positive and negative control compounds as well as infected and uninfected controls to ensure the integrity of the experiment.
The CPE reduction assays were performed in monolayers of human foreskin fibroblast (HFF) cells (5000/well) in 384-well plates in assay media consisting of MEM with Earle's salts, 2% FBS and standard concentrations of L-glutamine, penicillin and gentamycin. 5000 cells were seeded in 384-well microtiter plates and incubated at 37° C. in a humidified 5% CO2 incubator for 24 hours to allow for formation of confluent monolayers.
Cell monolayers were infected at a multiplicity of infection (MOI) of approximately 0.005 PFU/cell with virus strains including AdV5. […] Cytopathology was determined by the addition of CellTiter-Glo® reagent (Promega, Madison, Wis.). Concentrations of antiviral test compounds sufficient to reduce CPE by 50% (EC50) were interpolated from the experimental data using standard methods in Microsoft® Excel.

AdV6 = assay: Therapeutic efficacy against intravenous AdV6 in immunosuppressed male Syrian hamsters; conditions: for serum transaminase (ALT) levels (FIG. 7) / virus burden in the liver (FIG. 8): 5 days post challenge; for mortality / survival (FIG. 6A): AdV6-infected hamsters
Method: Four dose levels were tested: 10, 30, 60 and 100 mg/kg p.o. q.d. The highest dose was determined based on rat toxicology data.
All hamsters were immunosuppressed using cyclophosphamide (CP). CP was administered intraperitoneally at a dose of 140 mg/kg, and then twice weekly at a dose of 100 mg/kg.
Filociclovir, in powdered form, was suspended in 0.4% carboxymethyl cellulose (Sigma C5678, Lot #SLBS7273) at 1, 3, 6, and 10 mg/ml and sonicated to visual homogeneity and aliquots stored at 4° C. Aliquots were allowed to equilibrate to room temperature before dosing. Hamsters weighing approximately 100 g were dosed with a 1 ml volume of the appropriate suspension for the 10, 30, 60, and 100 mg/kg dose levels.
The hamsters were divided into 8 groups, 15 hamsters/group, (with the exception of Group 2, which had only 5 hamsters; see Table 3), immunosuppressed, and then injected i.v. with vehicle (Groups 1-2) or 2×10^10 PFU/kg of AdV6 (Groups […]). Groups 1 and 3 received drug vehicle (p.o. q.d.), Group 4 received 10 mg/kg filociclovir (p.o. q.d.), Group 5 received 30 mg/kg filociclovir (p.o. q.d.), Group 6 received 60 mg/kg filociclovir (p.o. q.d.), Groups 2 and 7 received 100 mg/kg filociclovir (p.o. q.d.), and Group 8 received cidofovir (20 mg/kg, 3 times weekly). For all groups, drug administration started 1 day before challenge, and continued according to the schedule above for the duration of the study.
The body weights and any signs of morbidity of the animals were recorded daily. At 5 days post challenge, 5 hamsters (designated at the start of the experiment) from each group (with the exception of Group 2) were sacrificed, and gross pathological observation was performed. Serum and liver samples were collected and the virus burden in liver was determined by a TCID50 assay, and the serum was analyzed for transaminase levels. The remaining 10 hamsters were sacrificed at 14 days post challenge. Hamsters that became visually moribund before Day 14 were sacrificed as needed. In addition to the hamsters observed to be moribund, all hamsters that lost more than 20% of their original body weight were also sacrificed. For the hamsters sacrificed at the conclusion of the experiment and those sacrificed as moribund, serum and liver tissues were collected and banked for possible determination of serum transaminase levels and virus burden in the liver. Liver tissue was preserved in formalin for possible histopathological examination.
As such, there were two endpoints for the study: One, collected from ten animals, was survival and body weight gain/loss (with the option of assaying virus burden in the liver and serum transaminase levels). The other, collected from 5 animals for the Day 5 time point, was virus burden in the liver and serum transaminase levels.

AdV7a = assay: Plaque reduction antiviral IC50 assay in A549, AdV7a; format: cell-based, adenovirus 7a; conditions: unidentified adenovirus
Method: (§1) The effectiveness of filociclovir to inhibit a number of adenovirus strains associated with conjunctivitis were tested in an in vitro assay. To determine the in vitro IC50 concentrations, i.e., the concentration of filociclovir that inhibits adenovirus plaque formation by 50%, filociclovir and cidofovir (CDV) were tested against a panel of 7 ocular types of adenovirus.
(§2) 42 A549 24-well multiplates (1 per each drug and each virus strain) were prepared. 7 adenovirus serotypes were tested at a time. Virus dilutions from known titer of stock viruses (approx. 100 PFU/0.1 ml) were prepared with AdV3 L, AdV4 H, AdV5 M, AdV7a J, AdV8 E, AdV 19/64 K, and AdV37 ATCC. 0.1 ml (containing approx. 100 PFU) of each of the 7 viruses were plated onto all 24 wells of an A549 multiplate and incubated at 37° C. in a 5% CO2 water-vapor atmosphere for 3 hours.
(§3) Dilutions of filociclovir and cidofovir were prepared at 400, 40, 4.0, 0.4, 0.04, and 0.004 μM in 2× nutrient tissue culture media, following the dilution protocol: 7.5 ml of each of filociclovir and cidofovir dilution was added to a tube and 22.5 ml of methylcellulose in outgrowth medium (OG) was then added to each tube. 1 ml of each filociclovir and cidofovir dilutions was added to an additional 15 ml tube and 3 ml of OG was added to each tube. This was the overlay for the Adv8 plates. Normal methylcellulose overlay medium without any drug was used for the control wells for each plate.
(§4) For each virus plate, 3 wells were overlaid with each of the 6 final filociclovir and cidofovir concentrations (100, 10, 1.0, 0.1, 0.01, and 0.001 μM) and 6 wells with the control media. Plates were incubated at 37° C. in a 5% CO2 water-vapor atmosphere until plaques were visible. When plaques became visible, plates were stained with gentian violet and plaques were counted at 25λ using a dissecting microscope. The IC50 concentrations were determined from Fitted Line Plot regression analysis using Minitab. All assays were performed in triplicate.

AdV37 = assay: Plaque reduction antiviral IC50 assay in A549, AdV37; format: cell-based, adenovirus 37; conditions: unidentified adenovirus
Method: as §1, §2, §3, §4

[1] = Cytotoxicity, neutral red, uninfected drug control wells of A549 cells; format: cell-based; conditions: human, AdV6 row of Table 2
Source text: The neutral red cell cytotoxicity assay is used to detect cell viability or drug cytotoxicity. The principle of this assay is based on the detection of viable cells via the uptake of the dye neutral red. Neutral red is a eurhodin dye that stains lysosomes in viable cells. Viable cells can take up neutral red via active transport and incorporate the dye into their lysosomes, but non-viable cells cannot not take up this chromophore. Consequently, after washing, viable cells can release the incorporated dye under acidified-extracted conditions. The amount of released dye can be used to determine the total number of viable cells or drug cytotoxicity. As such, cytotoxicity is expressed as a concentration-dependent reduction of the uptake of neutral red after exposure to the compound under investigation.
Neutral red survival assays were carried out in a 96-well format. Briefly, A549 adenocarcinomic human alveolar basal epithelial cells were plated at a concentration of 6×10^3 cells per well one day prior to infection. AdV6 infections were carried out at 5×10^3 PFU per well (an estimated 0.5 PFU/cell at the time of infection). Filociclovir was serially diluted 1:3 on separate 96-well plates with a no drug final row as control. […] Filociclovir plates were read and the results were graphed using GraphPad Prism graphing and statistical software (GraphPad Software, San Diego, Calif.).

Compound: Nc1ccn(C[C@@H](CO)OCP(=O)(O)O)c(=O)n1 [CDV, cidofovir, reference compound]
- EC50 (Adenovirus 5 (AdV5); Human mastadenovirus C, AdV 384 Well CPE, HFF cells, average and SD from five independent experiments): 4 ± 2 µM
- selectivity ratio (Adenovirus 5 (AdV5)): 24
- serum transaminase (ALT) levels (FIG. 7) (AdV6; 20 mg/kg i.p. 3x weekly): none of the filociclovir- or CDV-treated animals had elevated serum transaminase levels
- virus burden in the liver (FIG. 8) (AdV6; 20 mg/kg i.p. 3x weekly): very low to nonquantifiable levels
- IC50 (AdV7a; read-out: Mean IC50): 1.81 µM
- IC50 (AdV7a; read-out: Median IC50): 0.617 µM
- IC50 (AdV37; read-out: Mean IC50): 3.96 µM
- IC50 (AdV37; read-out: Median IC50): 0.382 µM

Compound: Nc1nc2c(ncn2/C=C2/CC2(CO)CO)c(=O)[nH]1 [Filociclovir, 2-amino-9-{(Z)-[2,2-bis(hydroxymethyl)cyclopropylidene]methyl}-3,9-dihydro-6H-purin-6-one]
- concentration effective to reduce AdV replication (FIG. 1) (Adenovirus 5 (AdV5); AdV5, tested 0.01 to 100 μM, 'as low as'): ≥ 0.2 µM
- selectivity ratio (Adenovirus 5 (AdV5)): 43
- CC50 at 6 days [1]: > 100 µM
- body weight loss (FIG. 6B) (AdV6; 10 mg/kg p.o. q.d.): reversed
- mortality / survival (FIG. 6A) (AdV6; 10 mg/kg p.o. q.d.): prevented mortality
- body weight loss (FIG. 6B) (AdV6; 30 mg/kg p.o. q.d.): reversed
- mortality / survival (FIG. 6A) (AdV6; 30 mg/kg p.o. q.d.): prevented mortality
- toxicity for AdV6-infected hamsters (AdV6; 60 mg/kg p.o. q.d.): toxic
- toxicity for AdV6-infected hamsters (AdV6; 100 mg/kg p.o. q.d.): toxic
- virus burden in the liver (FIG. 8) (AdV6; 10 mg/kg p.o. q.d.): one animal in the AdV6+10 mg/kg filociclovir group with a very low liver virus burden
- virus burden in the liver (FIG. 8) (AdV6; 30 mg/kg p.o. q.d.): nondetectable level
- serum transaminase (ALT) levels (FIG. 7) (AdV6; filociclovir-treated animals): none of the filociclovir- or CDV-treated animals had elevated serum transaminase levels
- necropsy finding at day 5 sacrifice (AdV6; AdV6+60 mg/kg p.o. q.d.): extensive kidney pathology
- necropsy finding at day 5 sacrifice (AdV6; AdV6+100 mg/kg p.o. q.d.): extensive kidney pathology
- IC50 (AdV7a; read-out: Mean IC50): 2.12 µM
- IC50 (AdV7a; read-out: Median IC50): 0.769 µM
- IC50 (AdV37; read-out: Mean IC50): 3.53 µM
- IC50 (AdV37; read-out: Median IC50): 4.52 µM
